{
  "source": "paper PMC6112376",
  "about": "“Comprehensive Analyses and Prioritization of Tox21 10K Chemicals Affecting Mitochondrial Function by in-Depth Mechanistic Studies” (Environmental Health Perspectives, 2018)",
  "key": {"[1]": {"test_system": "p53 (p53-bla HCT-116 cells)", "assay": "p53 β-lactamase reporter gene assay", "type": "cell-based, human", "settings": "Homo sapiens; 16 h incubation; mean±SD of three experiments"}, "HepG2 cells [2]": {"test_system": "HepG2 cells", "assay": "cells", "settings": "Homo sapiens"}, "[3]": {"test_system": "Caenorhabditis elegans strain PE255", "assay": "In vivo C. elegans ATP status assay"}, "[4]": {"biological_target": "T1, mitochondrial respiratory chain complex II (Rattus norvegicus, UniProt P21913+Q641Z9+Q6PCT8+Q920L2)", "T1 construct": "Submitochondrial particles were prepared by subjecting the intact rat mitochondria, isolated as described above, to three successive freeze–thaw cycles; from tissue; host or cells: rat liver mitochondria (submitochondrial particles)", "T1 sequence (Q920L2 35-656)": "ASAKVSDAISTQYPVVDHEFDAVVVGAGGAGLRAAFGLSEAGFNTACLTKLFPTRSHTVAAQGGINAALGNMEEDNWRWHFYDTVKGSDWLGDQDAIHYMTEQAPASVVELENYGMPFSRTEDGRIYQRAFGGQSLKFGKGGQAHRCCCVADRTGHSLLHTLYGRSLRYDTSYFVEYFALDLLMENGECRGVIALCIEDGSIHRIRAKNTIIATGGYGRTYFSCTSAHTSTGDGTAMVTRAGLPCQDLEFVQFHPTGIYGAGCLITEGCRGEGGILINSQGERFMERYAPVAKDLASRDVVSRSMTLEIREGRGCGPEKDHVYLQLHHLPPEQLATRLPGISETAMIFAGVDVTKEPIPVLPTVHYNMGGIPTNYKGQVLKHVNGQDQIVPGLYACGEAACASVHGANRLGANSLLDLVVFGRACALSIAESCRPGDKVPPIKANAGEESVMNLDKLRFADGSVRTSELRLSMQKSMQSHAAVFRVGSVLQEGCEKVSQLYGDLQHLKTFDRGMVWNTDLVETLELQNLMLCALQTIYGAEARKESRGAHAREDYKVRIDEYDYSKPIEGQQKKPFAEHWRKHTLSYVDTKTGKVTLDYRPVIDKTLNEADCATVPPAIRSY", "T1 sequence (P21913 31-282)": "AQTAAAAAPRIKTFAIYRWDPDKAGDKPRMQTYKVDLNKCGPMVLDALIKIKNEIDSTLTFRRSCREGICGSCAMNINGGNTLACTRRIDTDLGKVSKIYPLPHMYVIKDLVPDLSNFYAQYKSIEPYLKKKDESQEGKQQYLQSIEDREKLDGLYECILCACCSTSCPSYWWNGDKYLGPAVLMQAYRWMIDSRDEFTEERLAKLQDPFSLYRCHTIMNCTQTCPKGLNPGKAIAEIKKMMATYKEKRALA", "T1 sequence (Q641Z9 1-169)": "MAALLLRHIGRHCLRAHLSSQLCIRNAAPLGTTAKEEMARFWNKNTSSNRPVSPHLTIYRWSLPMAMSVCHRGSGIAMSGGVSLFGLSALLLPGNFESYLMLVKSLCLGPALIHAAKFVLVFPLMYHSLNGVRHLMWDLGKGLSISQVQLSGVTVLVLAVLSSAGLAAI", "T1 sequence (Q6PCT8 57-159)": "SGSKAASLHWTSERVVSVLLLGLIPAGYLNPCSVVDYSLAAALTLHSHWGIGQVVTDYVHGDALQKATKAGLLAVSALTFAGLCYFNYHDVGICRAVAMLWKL", "assay": "Respiratory chain complex II activity", "type": "biochemical", "settings": "at 0.8μM; mean±SD of three experiments"}, "[5]": {"test_system": "isolated rat liver mitochondria", "assay": "Oxygen consumption, Clark-type oxygen electrode", "type": "biochemical"}, "[6]": {"test_system": "mitochondrial respiratory chain complex I", "type": "biochemical, rat"}, "[7]": {"test_system": "Caenorhabditis elegans (Bristol N2)", "settings": "Bristol N2 (wild type), Caenorhabditis elegans, in vivo"}, "[8]": {"test_system": "Nrf2/ARE (ARE-bla HepG2 cells)", "assay": "ARE β-lactamase reporter gene assay", "type": "cell-based, human", "settings": "16 h incubation; mean±SD of three experiments"}, "HepG2 cells [9]": {"test_system": "HepG2 cells", "settings": "cited from earlier work"}, "[10]": {"test_system": "mitochondrial respiratory chain complex III", "type": "biochemical, rat"}, "rat primary hepatocytes [11]": {"test_system": "rat primary hepatocytes", "assay": "MMP assay in rat primary hepatocytes", "settings": "Rattus norvegicus, Hepatocyte"}, "[12]": {"test_system": "Caenorhabditis elegans (Bristol N2)", "assay": "C. elegans larval development and growth assay"}, "rat primary hepatocytes [13]": {"test_system": "rat primary hepatocytes"}, "[14]": {"test_system": "HeLa cells expressing YFP-Parkin", "assay": "Parkin translocation assay", "type": "cell-based, human"}, "HepG2 cells [15]": {"test_system": "HepG2 cells", "assay": "Intracellular ATP content (cell viability) assay", "type": "cell-based, human", "settings": "Homo sapiens, HepG2, 40 h"}, "hNSC": {"test_system": "hNSC", "assay": "MMP assay in human neural stem cells (hNSC)", "type": "cell-based", "settings": "Homo sapiens, Neural stem cell, 1 h, read-out: hNSC IC50 (MMP)"}, "[16]": {"test_system": "mitochondrial respiratory chain complex V", "type": "biochemical, rat", "settings": "at 20μM"}, "HepG2 cells [17]": {"test_system": "HepG2 cells", "assay": "ROS-Glo hydrogen peroxide (ROS) assay", "type": "cell-based, human", "settings": "Homo sapiens, HepG2, 2 h, read-out: ROS (HepG2) EC50"}, "[18]": {"test_system": "mitochondrial respiratory chain complex IV", "type": "biochemical, rat"}},
  "note": "Like-named read-outs stand apart in the source and are kept apart here.",
  "data": [
    {"smiles": "O=C(Nc1ccc(Oc2ccc(Cl)cc2)c(Cl)c1)c1cc(I)cc(I)c1O", "note": "[Rafoxanide, reference compound]", "values": [
      {"measurement": "EC50", "setting": "[1]", "value": "9.11 ± 3.81", "unit": "µM"},
      {"measurement": "IC50", "setting": "HepG2 cells [2]; HepG2, 1 h, read-out: HepG2 IC50 Galactose (MMP)", "value": 18.6, "unit": "µM"},
      {"measurement": "IC50", "setting": "HepG2 cells [2]; HepG2, 1 h, read-out: HepG2 IC50 Glucose (MMP)", "value": 20.9, "unit": "µM"},
      {"measurement": "IC50", "setting": "HepG2 cells [2]; HepG2, read-out: MMP assays IC50 (µM) HepG2", "value": 1.23, "unit": "µM"},
      {"measurement": "Emax", "setting": "HepG2 cells [2]; HepG2, read-out: MMP assays efficacy (%) HepG2", "value": 119, "unit": "%"},
      {"measurement": "LUM: mean difference in luminescence (ATP content) relative to plate controls", "setting": "[3]; 0.5 µM", "value": 0.09174},
      {"measurement": "LUM: mean difference in luminescence (ATP content) relative to plate controls", "setting": "[3]; 1 µM", "value": -0.0514},
      {"measurement": "LUM: mean difference in luminescence (ATP content) relative to plate controls", "setting": "[3]; 5 µM", "value": 0.4289},
      {"measurement": "LUM: mean difference in luminescence (ATP content) relative to plate controls", "setting": "[3]; 10 µM", "value": 0.2032},
      {"measurement": "LUM: mean difference in luminescence (ATP content) relative to plate controls", "setting": "[3]; 25 µM", "value": 0.5878},
      {"measurement": "LUM: mean difference in luminescence (ATP content) relative to plate controls", "setting": "[3]; 50 µM", "value": 0.4453},
      {"measurement": "LUM: mean difference in luminescence (ATP content) relative to plate controls", "setting": "[3]; 75 µM", "value": 0.5488},
      {"measurement": "LUM: mean difference in luminescence (ATP content) relative to plate controls", "setting": "[3]; 100 µM", "value": 0.6986},
      {"measurement": "minimal effective concentration", "setting": "[3]; Caenorhabditis elegans, read-out: LEC LUM: lowest effect concentration for luminescence, a measure of nematode ATP content", "value": 75, "unit": "µM"},
      {"measurement": "inhibition at 0.8 µM", "setting": "[4]", "value": "44.4 ± 6.56", "unit": "%"},
      {"measurement": "Potential Mechanism", "setting": "[5]", "value": "Uncoupler + inhibitor"},
      {"measurement": "I-ADP, % of control (O2 consumption rate)", "setting": "[5]; 0.0064 µM", "value": "93 (51.1) % of control"},
      {"measurement": "I-sub, % of control (O2 consumption rate)", "setting": "[5]; 0.0064 µM", "value": "94 (12.3) % of control"},
      {"measurement": "II-ADP, % of control (O2 consumption rate)", "setting": "[5]; 0.0064 µM", "value": "100 (88.4) % of control"},
      {"measurement": "II-sub, % of control (O2 consumption rate)", "setting": "[5]; 0.0064 µM", "value": "99 (24.3) % of control"},
      {"measurement": "I-ADP, % of control (O2 consumption rate)", "setting": "[5]; 0.032 µM", "value": "90 (41.4) % of control"},
      {"measurement": "I-sub, % of control (O2 consumption rate)", "setting": "[5]; 0.032 µM", "value": "118 (13.2) % of control"},
      {"measurement": "II-ADP, % of control (O2 consumption rate)", "setting": "[5]; 0.032 µM", "value": "70 (52.6) % of control"},
      {"measurement": "II-sub, % of control (O2 consumption rate)", "setting": "[5]; 0.032 µM", "value": "97 (20.0) % of control"},
      {"measurement": "I-ADP, % of control (O2 consumption rate)", "setting": "[5]; 0.16 µM", "value": "105 (48.3) % of control"},
      {"measurement": "I-sub, % of control (O2 consumption rate)", "setting": "[5]; 0.16 µM", "value": "163 (18.3) % of control"},
      {"measurement": "II-ADP, % of control (O2 consumption rate)", "setting": "[5]; 0.16 µM", "value": "63 (47.1) % of control"},
      {"measurement": "II-sub, % of control (O2 consumption rate)", "setting": "[5]; 0.16 µM", "value": "116 (23.9) % of control"},
      {"measurement": "I-ADP, % of control (O2 consumption rate)", "setting": "[5]; 0.8 µM", "value": "121 (55.6) % of control"},
      {"measurement": "I-sub, % of control (O2 consumption rate)", "setting": "[5]; 0.8 µM", "value": "379 (42.5) % of control"},
      {"measurement": "II-ADP, % of control (O2 consumption rate)", "setting": "[5]; 0.8 µM", "value": "45 (33.6) % of control"},
      {"measurement": "II-sub, % of control (O2 consumption rate)", "setting": "[5]; 0.8 µM", "value": "137 (28.2) % of control"},
      {"measurement": "I-ADP, % of control (O2 consumption rate)", "setting": "[5]; 4 µM", "value": "95 (43.7) % of control"},
      {"measurement": "I-sub, % of control (O2 consumption rate)", "setting": "[5]; 4 µM", "value": "399 (44.7) % of control"},
      {"measurement": "II-ADP, % of control (O2 consumption rate)", "setting": "[5]; 4 µM", "value": "23 (17.4) % of control"},
      {"measurement": "II-sub, % of control (O2 consumption rate)", "setting": "[5]; 4 µM", "value": "88 (18.1) % of control"},
      {"measurement": "I-ADP, % of control (O2 consumption rate)", "setting": "[5]; 20 µM", "value": "15 (7.1) % of control"},
      {"measurement": "I-sub, % of control (O2 consumption rate)", "setting": "[5]; 20 µM", "value": "116 (13.0) % of control"},
      {"measurement": "II-ADP, % of control (O2 consumption rate)", "setting": "[5]; 20 µM", "value": "15 (11.3) % of control"},
      {"measurement": "II-sub, % of control (O2 consumption rate)", "setting": "[5]; 20 µM", "value": "55 (11.4) % of control"},
      {"measurement": "Complex I % inhibition (activity call)", "setting": "[6]", "value": "Inactive"},
      {"measurement": "LEC (lowest effect concentration), larval growth assay", "setting": "[7]", "value": "≤ 10", "unit": "µM"},
      {"measurement": "ARE (HepG2) EC50", "setting": "[8]", "value": "Inactive"},
      {"measurement": "MMP assays efficacy (%) qHTS-HepG2", "setting": "HepG2 cells [9]", "value": "-110±8", "unit": "%"},
      {"measurement": "IC50", "setting": "HepG2 cells [9]; read-out: MMP assays IC50 (µM), qHTS-HepG2", "value": "3.27 ± 1.76", "unit": "µM"},
      {"measurement": "Complex III % inhibition (activity call)", "setting": "[10]", "value": "Inactive"},
      {"measurement": "IC50", "setting": "rat primary hepatocytes [11]; 1 h, read-out: Rat hepatocytes IC50 (MMP)", "value": 4.5, "unit": "µM"},
      {"measurement": "IC50", "setting": "rat primary hepatocytes [11]; read-out: MMP assays IC50 (µM) Rat Hepatocytes", "value": "1.86 ± 0.83", "unit": "µM"},
      {"measurement": "EXT: mean difference in nematode size relative to plate controls", "setting": "[12]; 0.5 µM", "value": -0.03197},
      {"measurement": "EXT: mean difference in nematode size relative to plate controls", "setting": "[12]; 1 µM", "value": 0.04544},
      {"measurement": "EXT: mean difference in nematode size relative to plate controls", "setting": "[12]; 5 µM", "value": 0.3092},
      {"measurement": "EXT: mean difference in nematode size relative to plate controls", "setting": "[12]; 10 µM", "value": 0.3633},
      {"measurement": "EXT: mean difference in nematode size relative to plate controls", "setting": "[12]; 25 µM", "value": 1.242},
      {"measurement": "EXT: mean difference in nematode size relative to plate controls", "setting": "[12]; 50 µM", "value": 1.69},
      {"measurement": "EXT: mean difference in nematode size relative to plate controls", "setting": "[12]; 75 µM", "value": 0.8224},
      {"measurement": "EXT: mean difference in nematode size relative to plate controls", "setting": "[12]; 100 µM", "value": 0.8924},
      {"measurement": "minimal effective concentration", "setting": "[12]; Caenorhabditis elegans, read-out: LEC EXT: lowest effect concentration for extinction, a measure of nematode size", "value": 2.5, "unit": "µM"},
      {"measurement": "MMP assays efficacy (%) Rat Hepatocytes", "setting": "rat primary hepatocytes [13]", "value": "-91±18", "unit": "%"},
      {"measurement": "Rat hepatocytes (efficacy) (MMP)", "setting": "rat primary hepatocytes [13]", "value": "4.50±0.81 ( −72.1±10.3 ) %"},
      {"measurement": "Parkin recruitment", "setting": "[14]", "value": "Active"},
      {"measurement": "IC50", "setting": "HepG2 cells [15]; read-out: ATP (HepG2, galactose) IC50", "value": 54.1, "unit": "µM"},
      {"measurement": "IC50", "setting": "HepG2 cells [15]; read-out: ATP (HepG2, glucose) IC50", "value": 46.7, "unit": "µM"},
      {"measurement": "IC50", "setting": "hNSC", "value": 10.3, "unit": "µM"},
      {"measurement": "Complex V % inhibition", "setting": "[16]", "value": "40.1±1.87", "unit": "at 20μM %"},
      {"measurement": "EC50", "setting": "HepG2 cells [17]", "value": 26.5, "unit": "µM"},
      {"measurement": "Complex IV % inhibition (activity call)", "setting": "[18]", "value": "Inactive"}
    ]}
  ]
}
